Patent US20070066632A1, “Fused bicyclic inhibitors of TGFbeta” (Scios, Inc., priority 2005, published 2007)

Experiments:
[1] = tested on: HCV replicons (HCV type 1b NS3-NS5B) in Huh-Luc cells; experiment: HCV replicon assay (Huh-7 luc/neo, luciferase reporter); assay type: cell-based; settings: Hepatitis C virus, Huh-7, 72 h, incubation of three days, luciferase activity
Source text: The pyrido[2,3-d]pyrimidine compounds of the present invention were examined for activity in the inhibition of HCV RNA replication in a cellular assay. […] The cellular assay was based on a bicistronic expression construct, as described by Lohmann et al. (1999) Science vol. 285 pp. 110-113 with modifications described by Krieger et al. (2001) Journal of Virology 75: 4614-4624, in a multi-target screening strategy. In essence, the method was as follows.
The assay utilized the stably transfected cell line Huh-7 luc/neo (hereafter referred to as Huh-Luc). […]
The replicon cells were plated in 384-well plates in the presence of the test and control compounds which were added in various concentrations. Following an incubation of three days, HCV replication was measured by assaying luciferase activity (using standard luciferase assay substrates and reagents and a Perkin Elmer ViewLux™, ultraHTS microplate imager). […] The inhibitory activity of the compound on luciferase activity was monitored on the Huh-Luc cells, enabling a dose-response curve for each test compound. […]
The replicon cells are plated in 384 well plates in the presence of the test and control compounds which are added in various concentrations. […] The inhibitory activity of the compound on luciferase activity is monitored on the Huh-Luc cells, enabling a dose-response curve for each test compound.

[2] = target: T1, TGFβ R1 (Homo sapiens, UniProt P36897); experiment: TGFβ R1 autophosphorylation protocol; assay type: biochemical; settings: 10 uM ATP, 170 nM TGFβ R1, 20 minutes at room temperature; read-out: IC50 for Kinase Inhibition
T1 sequence (P36897 34-503): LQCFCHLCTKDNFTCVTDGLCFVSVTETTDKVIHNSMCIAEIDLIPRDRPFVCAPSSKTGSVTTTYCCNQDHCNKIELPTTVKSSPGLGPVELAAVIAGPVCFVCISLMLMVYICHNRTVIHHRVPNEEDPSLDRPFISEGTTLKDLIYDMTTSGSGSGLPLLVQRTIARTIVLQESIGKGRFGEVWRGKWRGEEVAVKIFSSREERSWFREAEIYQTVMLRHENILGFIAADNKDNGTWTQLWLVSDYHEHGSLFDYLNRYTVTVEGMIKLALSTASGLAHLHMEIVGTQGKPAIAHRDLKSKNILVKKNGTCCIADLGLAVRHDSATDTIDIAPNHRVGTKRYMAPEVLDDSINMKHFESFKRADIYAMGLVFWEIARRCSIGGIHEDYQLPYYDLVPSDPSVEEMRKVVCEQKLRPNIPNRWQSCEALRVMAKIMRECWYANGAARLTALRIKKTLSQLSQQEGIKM
Procedure: The compounds of the invention were tested for their ability to inhibit TGFβ by a TGFβ R^1 autophosphorylation protocol. This was conducted as follows: Compound dilutions and reagents were prepared fresh daily. Compounds were diluted from DMSO stock solutions to 2 times the desired assay concentration, keeping final DMSO concentration in the assay less than or equal to 1%. TGFβ R1 was diluted to 4 times the desired assay concentration in buffer+DTT. ATP was diluted into 4× reaction buffer, and gamma-^33P-ATP was added at 60 uCi/mL.
The assay was performed by adding 10 ul of the enzyme to 20 ul of the compound solution. The reaction was initiated by the addition of 10 ul of ATP mix. Final assay conditions included 10 uM ATP, 170 nM TGFβ R1, and […] in 20 mM MOPS, pH7. The reactions were incubated at room temperature for 20 minutes. The reactions were stopped by transferring 23 ul of reaction mixture onto a phosphocellulose 96-well filter plate, which had been pre-wetted with 15 ul of 0.25M H3PO4 per well. After 5 minutes, the wells were washed 4× with 75 mM H3PO4 and once with 95% ethanol. The plate was dried, scintillation cocktail was added to each well, and the wells were counted in a Packard TopCount microplate scintillation counter.

Row | SMILES | IC50 [2] | EC50 [1]
1 | NC(=O)c1cnccc1Nc1nc(-c2cc(Cl)ccc2F)nc2ncccc12 [Compound 1] | 20 nM | 0.76 µM
2 | CNC(=O)c1cnccc1Nc1nc(-c2cc(Cl)ccc2F)nc2ncccc12 [Compound 2] | 70 nM | 11.9 µM
3 | COc1ccc(CNc2ccc3c(Nc4ccncc4C(=O)NC4CC4)nc(-c4cc(Cl)ccc4F)nc3n2)cc1 [Compound 8] | 1400 nM | –
4 | CN(Cc1ccccc1)c1ccc2c(Nc3ccncc3C(=O)O)nc(-c3cc(Cl)ccc3F)nc2n1 [Compound 14] | 225 nM | –
5 | COc1ccc(CN(Cc2ccc(OC)cc2)c2ccc3c(Nc4ccncc4C(=O)O)nc(-c4cc(Cl)ccc4F)nc3n2)cc1 [Compound 15] | 569 nM | –
6 | COC(=O)c1cnccc1Nc1nc(-c2cc(Cl)ccc2F)nc2nc(N(Cc3ccc(OC)cc3)Cc3ccc(OC)cc3)ccc12 [Compound 16] | 745 nM | –
7 | COc1ccc(CNc2ccc3c(Nc4ccncc4C(=O)NCCCN4CCOCC4)nc(-c4cc(Cl)ccc4F)nc3n2)cc1 [Compound 18] | 990 nM | –

The next lines start with results.

Row | IC50 [2] | SMILES | EC50 [1]
8 | 1600 nM | CNC(=O)c1cnccc1Nc1nc(-c2cc(Cl)ccc2NC)nc2ncccc12 [Compound 3] | –
9 | 30 nM | CNC(=O)c1cnccc1Nc1nc(-c2cc(Cl)ccc2F)nc2nc(N)ccc12 [Compound 4] | –
10 | 6040 nM | CNC(=O)c1cnccc1Nc1nc(-c2cc(Cl)ccc2F)nc2nc(NCCN(C)C)ccc12 [Compound 5] | –
11 | 12200 nM | CC(O)CNC(=O)c1cnccc1Nc1nc(-c2cc(Cl)ccc2F)nc2nc(NCCN(C)C)ccc12 (stereo not shown) [Compound 6] | –
12 | 980 nM | CNC(=O)c1cnccc1Nc1nc(-c2cc(Cl)ccc2F)nc2nc(NCCOC)ccc12 [Compound 7] | –
13 | 2700 nM | Nc1ccc2c(Nc3ccncc3C(=O)NC3CC3)nc(-c3cc(Cl)ccc3F)nc2n1 [Compound 9] | –
14 | 5010 nM | C[C@H](O)CNC(=O)c1cnccc1Nc1nc(-c2cc(Cl)ccc2F)nc2nc(N)ccc12 [Compound 10] | –
15 | 1370 nM | COC(=O)c1cnccc1Nc1nc(-c2cc(Cl)ccc2F)nc2ncccc12 [Compound 11] | –
16 | 230 nM | O=C(O)c1cnccc1Nc1nc(-c2cc(Cl)ccc2F)nc2ncccc12 [Compound 12] | –
17 | 530 nM | CCOC(=O)c1cnccc1Nc1nc(-c2cc(Cl)ccc2F)nc2ncccc12 [Compound 13] | –
